From US20210047262A1, “2-(3,4-DIHYDROXYPHENYL)ETHYL 3-HYDROXYBUTANOATE, COMPOSITION, AND METHOD FOR IMPROVING FUNCTION OF AORTIC ENDOTHELIAL CELL” (XI'AN JIAOTONG UNIVERSITY, priority 2019, published 2021)

Tests used:
mitochondrial complex I = test: Protein detection by Western blot in HAECs, mitochondrial complex I; format: cell-based, human; details: FIG. 3A, 3B
Description: (§1) Human aortic endothelial cells (HAECs) were purchased from Shanghai Shanghai Bioleaf Biotech Co., Ltd. Palmitic acid (PA) was purchased from SIGMA Company. A palmitic acid solution having a concentration of 500 μM was prepared by dissolving palmitic acid in water. A cell culture incubator was adopted to culture the cells in a temperature-constant, humidified, sterile condition. The cells were cultured in wells of culture plates at an atmosphere of 95% air and 5% CO2 at 37° C. in the incubator. The experiments were performed on different experimental groups of cells.
The HAECs that were previously cultured in a 6-well cell culture plate were divided into 3 different experimental groups, the control (Ctrl) group, the PA group, and the HT-HB+PA group. The cells of the HT-HB+PA group were applied with HT-HB in a concentration of 100 µM followed with an 24-hour incubation. […]
The medium for cell culture in the wells was removed. […] The supernatants were collected, and the proteins therein were quantified by bicinchoninic acid (BCA) assay, and normalized. […]
10 μg of the extracted proteins were subjected to gel electrophoresis with 10% acrylamide gel, and electrophoretic transferred onto a PVDF membrane, which were blocked, and incubated with a primary antibody at 4° C. overnight, free primary antibody was washed away. […] Target proteins were detected by chemiluminescence.

mitochondrial complex II = test: Protein detection by Western blot in HAECs, mitochondrial complex II; format: cell-based, human; details: 500 μM palmitic acid 24 h, vs control, FIG. 3A, 3B
Description: Human aortic endothelial cells (HAECs) were purchased from Shanghai Shanghai Bioleaf Biotech Co., Ltd. Palmitic acid (PA) was purchased from SIGMA Company. A palmitic acid solution having a concentration of 500 μM was prepared by dissolving palmitic acid in water. A cell culture incubator was adopted to culture the cells in a temperature-constant, humidified, sterile condition. The cells were cultured in wells of culture plates at an atmosphere of 95% air and 5% CO2 at 37° C. in the incubator. The experiments were performed on different experimental groups of cells. The HAECs that were previously cultured in a 6-well cell culture plate were divided into 3 different experimental groups, the control (Ctrl) group, the PA group, and the HT-HB+PA group. The cells of the HT-HB+PA group were applied with HT-HB in a concentration of 100 µM followed with an 24-hour incubation. Then, the cells of both the PA group and the HT-HB+PA group were applied with 500 μM palmitic acid, all followed with another 24-hour incubation. The protein detection was respectively carried out on each group of cells as follows. The medium for cell culture in the wells was removed. […] The supernatants were collected, and the proteins therein were quantified by bicinchoninic acid (BCA) assay, and normalized. […] Target proteins were detected by chemiluminescence.

interleukin-6 (IL-6) = test: IL-6 mRNA level detection (RT-PCR) in HAECs; format: cell-based, human; details: FIG. 2
Description: as §1
The HAECs that were previously cultured in a 12-well cell culture plate were divided into 4 different experimental groups and respectively applied with HT-HB in different concentrations, 0 μM, 0 μM, 50 μM, 100 μM, all followed with an 24-hour incubation. Then, the last 3 groups of cells were respectively applied with 500 μM palmitic acid, the first was not, all followed with another 24-hour incubation. The detecting of mRNA levels corresponding to interleukin-6 (IL-6) was respectively carried out on each group of cells by using reverse transcription RNA and real-time quantitative polymerase chain reaction (PCR), and the specific method is as follows:
The medium for cell culture in the wells was removed. […] The concentration of the solution was measured by an ultraviolet spectrophotometer. […]

[1] = system: Human aortic endothelial cells (HAECs); test: MTT assay, cell viability of HAECs; format: cell-based; details: FIG. 1
Description: as §1
The HAECs that were previously cultured in a 12-well cell culture plates were divided into 6 different experimental groups and respectively applied with HT-HB in different concentrations, 0 μM, 1 μM, 10 μM, 50 μM, 100 μM, and 200 μM, all followed with an 24-hour incubation. Then, each of the 6 groups of cells was further divided into two sub groups, one was applied with 500 µM palmitic acid, the other was not, all followed with another 24-hour incubation.
An MTT assay was performed to all groups of cells. […] The absorbance was measured at a wavelength of 490 nm in a spectrophotometer. The absorbance of this colored solution can be quantified by measuring at a certain wavelength (usually between 500 and 600 nm) by a spectrophotometer.

With `CCCCCCCCCCCCCCCC(=O)O` [palmitic acid, reference compound] the “relative protein expression level of mitochondrial complex I” value (mitochondrial complex I; 500 μM palmitic acid 24 h, vs control) was “reducing the expression”, the “relative protein expression level of mitochondrial complex II” value (mitochondrial complex II) was “reducing the expression” and the “increase of mRNA level corresponding to IL-6” value (interleukin-6 (IL-6); HAECs, 500 μM palmitic acid 24 h, vs control group) was “about 10 times”.

In the case of `CC(O)CC(=O)OCCc1ccc(O)c(O)c1` (stereo not shown) [HT-HB, 2-(3,4-dihydroxyphenyl)ethyl 3-hydroxybutanoate], the “relative protein expression level of mitochondrial complex I” value (mitochondrial complex I; HT-HB 100 M 24 h, then 500 μM palmitic acid 24 h, vs PA group) was “significantly increasing the expression”, the relative cell viability ([1]; HAECs not treated with palmitic acid, HT-HB 1 μM to 100 μM, vs cells without HT-HB (control)) was “higher viabilities” and the relative cell viability ([1]; HAECs pretreated with HT-HB 1 μM to 100 μM for 24 h, then 500 µM palmitic acid 24 h, vs palmitic acid treated cells without HT-HB) was “higher viabilities”. For the same compound, the “mRNA level corresponding to IL-6” value (interleukin-6 (IL-6); HAECs pretreated with HT-HB 100 M for 24 h, then 500 μM palmitic acid 24 h) was “significantly decreased”.
